Tests used:
Test in all cases: Kinase profiling
Type in all cases: binding
Conditions in all cases: read-out: % Ctrl @ 1000 nM
ABL1-phosphorylated = ABL1-phosphorylated (Homo sapiens, UniProt P00519)
[1] = target: ABL1 (Q252H)-nonphosphorylated (Homo sapiens, UniProt P00519, Q252H)
KIT (L576P) = KIT (L576P) (Homo sapiens, UniProt P10721, L576P)
CDC2L2 = CDC2L2 (Homo sapiens, UniProt Q9UQ88)
LRRK2 = LRRK2 (Homo sapiens, UniProt Q5S007)
MST4 = target: T1, MST4 (Homo sapiens, UniProt Q9P289)
T1 construct: T7 phage fusion (said for most assays); made in house

GSK3A = GSK3A (Homo sapiens, UniProt P49840)
CLK4 = CLK4 (Homo sapiens, UniProt Q9HAZ1)
SLK = SLK (Homo sapiens, UniProt Q9H2G2)
WEE2 = WEE2 (Homo sapiens, UniProt P0C1S8)
MLK1 = target: T2, MLK1 (Homo sapiens, UniProt P80192)
T2 construct: T7 phage fusion (stated for most kinases of the panel only); made in house; host or cells: T7 phage in E. coli (BL21-derived) or HEK-293 cells

KIT = KIT (Homo sapiens, UniProt P10721)
DRAK2 = DRAK2 (Homo sapiens, UniProt O94768)
CAMKK1 = CAMKK1 (Homo sapiens, UniProt Q8N5S9)
SgK110 = SgK110 (Homo sapiens, UniProt P0C264)
ABL1-nonphosphorylated = ABL1-nonphosphorylated (Homo sapiens, UniProt P00519)
HASPIN = HASPIN (Homo sapiens, UniProt Q8TF76)
ACVR1 = ACVR1 (Homo sapiens, UniProt Q04771)
Sequence of ACVR1 (Q04771 21-509): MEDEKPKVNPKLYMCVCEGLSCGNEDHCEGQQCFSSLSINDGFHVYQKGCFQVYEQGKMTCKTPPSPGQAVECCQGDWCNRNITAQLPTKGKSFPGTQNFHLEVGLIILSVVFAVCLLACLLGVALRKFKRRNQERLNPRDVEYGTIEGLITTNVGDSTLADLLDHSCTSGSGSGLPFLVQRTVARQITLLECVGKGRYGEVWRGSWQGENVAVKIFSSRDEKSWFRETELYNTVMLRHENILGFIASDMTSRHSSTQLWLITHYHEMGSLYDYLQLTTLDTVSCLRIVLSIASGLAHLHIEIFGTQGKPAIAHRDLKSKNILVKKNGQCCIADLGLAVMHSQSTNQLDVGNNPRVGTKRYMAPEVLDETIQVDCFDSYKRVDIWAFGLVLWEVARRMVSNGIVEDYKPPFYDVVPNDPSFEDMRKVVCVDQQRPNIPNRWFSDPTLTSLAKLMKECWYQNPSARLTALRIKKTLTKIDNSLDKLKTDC

PIK3CA (H1047L) = PIK3CA (H1047L) (Homo sapiens, UniProt P42336, H1047L)
TNK1 = TNK1 (Homo sapiens, UniProt Q13470)
CSNK2A1 = CSNK2A1 (Homo sapiens, UniProt P68400)
CSNK1D = CSNK1D (Homo sapiens, UniProt P48730)
PLK3 = PLK3 (Homo sapiens, UniProt Q9H4B4)
CSNK1A1L = CSNK1A1L (Homo sapiens, UniProt Q8N752)
MERTK = target: T3, MERTK (Homo sapiens, UniProt Q12866)
T3 construct: T7 phage fusion (stated for most kinases of the panel only); made in house; host or cells: T7 phage in E. coli (BL21-derived) or HEK-293 cells
T3 sequence (Q12866 21-999): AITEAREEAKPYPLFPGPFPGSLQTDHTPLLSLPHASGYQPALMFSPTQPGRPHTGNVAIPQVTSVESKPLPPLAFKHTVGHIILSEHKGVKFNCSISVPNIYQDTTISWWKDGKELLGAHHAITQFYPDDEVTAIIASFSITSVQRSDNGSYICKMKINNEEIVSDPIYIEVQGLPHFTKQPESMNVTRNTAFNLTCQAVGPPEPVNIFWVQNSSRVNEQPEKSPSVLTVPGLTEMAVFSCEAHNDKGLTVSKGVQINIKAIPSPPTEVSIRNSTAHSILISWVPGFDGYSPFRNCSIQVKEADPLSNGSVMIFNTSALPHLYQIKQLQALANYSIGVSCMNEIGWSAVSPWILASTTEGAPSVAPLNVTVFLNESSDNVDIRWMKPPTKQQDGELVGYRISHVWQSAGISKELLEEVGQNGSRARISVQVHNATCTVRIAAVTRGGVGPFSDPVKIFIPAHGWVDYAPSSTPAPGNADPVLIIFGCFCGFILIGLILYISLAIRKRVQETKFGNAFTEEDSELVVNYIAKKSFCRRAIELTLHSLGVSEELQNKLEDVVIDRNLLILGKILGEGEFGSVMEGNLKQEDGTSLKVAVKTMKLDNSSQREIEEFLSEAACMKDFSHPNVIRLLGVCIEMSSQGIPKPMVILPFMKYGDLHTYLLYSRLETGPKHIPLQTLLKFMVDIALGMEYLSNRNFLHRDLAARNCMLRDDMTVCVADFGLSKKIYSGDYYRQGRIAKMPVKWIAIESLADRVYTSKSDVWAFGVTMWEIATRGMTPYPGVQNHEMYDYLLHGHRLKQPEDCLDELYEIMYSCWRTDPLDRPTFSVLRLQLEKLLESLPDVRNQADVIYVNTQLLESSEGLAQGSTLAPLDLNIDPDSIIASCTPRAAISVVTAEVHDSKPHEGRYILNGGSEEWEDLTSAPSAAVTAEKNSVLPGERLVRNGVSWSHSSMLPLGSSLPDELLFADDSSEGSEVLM

GRK7 = GRK7 (Homo sapiens, UniProt Q8WTQ7)
[2] = target: EGFR (L747-S752del, P753S) (Homo sapiens, UniProt P00533, DEL747-752/P753S)
JNK3 = JNK3 (Homo sapiens, UniProt P53779)
EPHA4 = EPHA4 (Homo sapiens, UniProt P54764)
Sequence of EPHA4 (P54764 20-986): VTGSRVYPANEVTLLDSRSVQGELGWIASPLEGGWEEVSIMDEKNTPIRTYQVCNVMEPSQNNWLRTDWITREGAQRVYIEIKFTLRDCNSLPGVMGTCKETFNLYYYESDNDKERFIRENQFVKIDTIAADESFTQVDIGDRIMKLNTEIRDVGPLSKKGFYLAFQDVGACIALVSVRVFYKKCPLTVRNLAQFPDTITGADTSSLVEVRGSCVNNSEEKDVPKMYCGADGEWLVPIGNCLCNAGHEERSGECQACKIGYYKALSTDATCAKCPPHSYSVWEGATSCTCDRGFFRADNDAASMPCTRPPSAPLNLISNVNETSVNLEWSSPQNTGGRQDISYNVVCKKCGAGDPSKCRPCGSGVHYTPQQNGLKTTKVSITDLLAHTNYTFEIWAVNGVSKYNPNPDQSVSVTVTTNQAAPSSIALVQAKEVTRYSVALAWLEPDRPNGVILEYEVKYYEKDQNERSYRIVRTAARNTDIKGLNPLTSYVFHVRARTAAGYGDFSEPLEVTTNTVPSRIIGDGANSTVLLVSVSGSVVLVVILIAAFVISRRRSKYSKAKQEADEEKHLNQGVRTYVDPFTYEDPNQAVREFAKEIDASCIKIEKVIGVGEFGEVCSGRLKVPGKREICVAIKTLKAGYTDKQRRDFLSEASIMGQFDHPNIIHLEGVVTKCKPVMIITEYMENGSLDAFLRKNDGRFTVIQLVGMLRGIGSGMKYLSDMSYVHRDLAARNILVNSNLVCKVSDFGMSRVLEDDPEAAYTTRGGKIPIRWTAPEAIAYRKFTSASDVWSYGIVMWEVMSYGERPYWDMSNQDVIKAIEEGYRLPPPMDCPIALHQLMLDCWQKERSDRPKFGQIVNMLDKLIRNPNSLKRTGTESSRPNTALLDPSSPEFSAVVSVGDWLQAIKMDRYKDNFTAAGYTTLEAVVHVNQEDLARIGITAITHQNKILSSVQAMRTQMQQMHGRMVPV

PRKCH = PRKCH (Homo sapiens, UniProt P24723)
Sequence of PRKCH (P24723 whole entry): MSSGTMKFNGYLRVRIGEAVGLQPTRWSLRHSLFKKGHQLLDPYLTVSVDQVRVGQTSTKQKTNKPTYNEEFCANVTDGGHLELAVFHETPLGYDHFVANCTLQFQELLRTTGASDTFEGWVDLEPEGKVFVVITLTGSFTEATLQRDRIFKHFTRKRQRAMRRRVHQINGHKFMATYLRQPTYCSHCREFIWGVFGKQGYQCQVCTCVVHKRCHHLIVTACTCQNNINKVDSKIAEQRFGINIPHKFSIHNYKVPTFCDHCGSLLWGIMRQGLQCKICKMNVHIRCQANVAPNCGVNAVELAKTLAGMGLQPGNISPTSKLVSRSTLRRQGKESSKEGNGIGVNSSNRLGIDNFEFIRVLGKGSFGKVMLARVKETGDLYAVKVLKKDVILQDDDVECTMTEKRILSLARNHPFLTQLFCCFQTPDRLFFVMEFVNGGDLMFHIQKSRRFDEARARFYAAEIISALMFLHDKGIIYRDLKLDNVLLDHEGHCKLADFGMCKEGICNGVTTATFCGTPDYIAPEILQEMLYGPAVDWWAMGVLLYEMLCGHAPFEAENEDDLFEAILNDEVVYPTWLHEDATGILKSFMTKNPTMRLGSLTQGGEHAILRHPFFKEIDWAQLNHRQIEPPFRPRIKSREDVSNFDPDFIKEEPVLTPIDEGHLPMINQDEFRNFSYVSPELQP

EPHA2 = EPHA2 (Homo sapiens, UniProt P29317)
SIK2 = SIK2 (Homo sapiens, UniProt Q9H0K1)
BMPR2 = BMPR2 (Homo sapiens, UniProt Q13873)
LRRK2 (G2019S) = LRRK2 (G2019S) (Homo sapiens, UniProt Q5S007, G2019S)
FLT3 (K663Q) = FLT3 (K663Q) (Homo sapiens, UniProt P36888, K663Q)
EPHA3 = EPHA3 (Homo sapiens, UniProt P29320)
TGFBR1 = TGFBR1 (Homo sapiens, UniProt P36897)
NEK4 = target: T4, NEK4 (Homo sapiens, UniProt P51957)
T4 construct: T7 phage fusion (said for most assays); made in house
T4 sequence (P51957 whole entry, the tested form may be a part): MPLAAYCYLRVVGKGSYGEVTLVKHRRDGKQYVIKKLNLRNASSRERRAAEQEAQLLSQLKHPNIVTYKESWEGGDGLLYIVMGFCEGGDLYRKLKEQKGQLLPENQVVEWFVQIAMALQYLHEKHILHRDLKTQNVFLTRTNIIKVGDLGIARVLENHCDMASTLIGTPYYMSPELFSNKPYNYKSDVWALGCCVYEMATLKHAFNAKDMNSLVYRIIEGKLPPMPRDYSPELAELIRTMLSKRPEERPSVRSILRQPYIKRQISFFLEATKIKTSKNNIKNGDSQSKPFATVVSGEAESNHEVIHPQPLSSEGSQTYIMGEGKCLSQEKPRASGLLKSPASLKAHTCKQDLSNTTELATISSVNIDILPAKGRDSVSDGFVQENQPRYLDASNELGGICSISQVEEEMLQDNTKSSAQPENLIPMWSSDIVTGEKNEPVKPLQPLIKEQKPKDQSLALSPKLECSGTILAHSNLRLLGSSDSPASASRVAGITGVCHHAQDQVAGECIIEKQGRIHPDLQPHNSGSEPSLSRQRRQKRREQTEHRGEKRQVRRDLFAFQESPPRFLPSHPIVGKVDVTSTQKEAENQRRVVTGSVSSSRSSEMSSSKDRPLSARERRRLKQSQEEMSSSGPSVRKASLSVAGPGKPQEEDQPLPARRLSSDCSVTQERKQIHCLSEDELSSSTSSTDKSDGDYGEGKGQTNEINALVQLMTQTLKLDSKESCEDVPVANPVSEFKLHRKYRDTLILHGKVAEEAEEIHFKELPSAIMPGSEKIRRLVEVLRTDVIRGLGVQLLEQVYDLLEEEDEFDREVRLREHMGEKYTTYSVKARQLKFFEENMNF

ERK2 = ERK2 (Homo sapiens, UniProt P28482)

Sequence of CDC2L2 (Q9UQ88 whole entry): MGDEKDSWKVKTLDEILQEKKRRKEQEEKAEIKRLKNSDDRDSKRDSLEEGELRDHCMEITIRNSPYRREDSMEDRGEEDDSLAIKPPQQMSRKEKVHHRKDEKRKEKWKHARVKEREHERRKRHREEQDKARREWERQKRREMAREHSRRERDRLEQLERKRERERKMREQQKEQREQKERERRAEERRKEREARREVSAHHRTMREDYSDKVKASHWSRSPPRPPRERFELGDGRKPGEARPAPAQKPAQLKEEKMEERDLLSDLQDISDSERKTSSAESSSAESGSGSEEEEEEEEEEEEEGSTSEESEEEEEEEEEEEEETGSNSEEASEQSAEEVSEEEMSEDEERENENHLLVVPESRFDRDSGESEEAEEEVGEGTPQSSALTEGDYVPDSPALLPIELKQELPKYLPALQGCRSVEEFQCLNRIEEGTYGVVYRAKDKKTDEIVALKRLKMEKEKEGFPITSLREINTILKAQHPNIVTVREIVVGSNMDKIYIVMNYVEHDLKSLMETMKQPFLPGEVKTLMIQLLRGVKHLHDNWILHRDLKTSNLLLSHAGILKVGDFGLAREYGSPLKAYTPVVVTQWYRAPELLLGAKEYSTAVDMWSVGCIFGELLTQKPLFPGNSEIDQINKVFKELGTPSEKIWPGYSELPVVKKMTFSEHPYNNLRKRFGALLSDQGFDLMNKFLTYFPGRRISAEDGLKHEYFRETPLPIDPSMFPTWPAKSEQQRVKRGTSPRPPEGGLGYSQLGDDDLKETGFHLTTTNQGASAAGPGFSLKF

Question: Which remaining activity at 1 µM (ABL1-phosphorylated) does the source give for `Cc1cc(Oc2cc(NC(=O)C3CC3)ncn2)ccc1NC(=O)Nc1ccc(Cl)c(C(F)(F)F)c1` [CBT-102] here?
Answer: 67%

Question: What about the remaining activity at 1 µM [1] of the same compound?
Answer: 6%

Question: What about the remaining activity at 1 µM (KIT (L576P)) of the same compound?
Answer: 0%

Question: What about the remaining activity at 1 µM (CDC2L2) of the same compound?
Answer: 22%

Question: And the remaining activity at 1 µM (LRRK2)?
Answer: 73%

Question: What about the remaining activity at 1 µM (MST4) of the same compound?
Answer: 100%

Question: And the remaining activity at 1 µM (GSK3A)?
Answer: 18%

Question: What about the remaining activity at 1 µM (CLK4) of the same compound?
Answer: 95%

Question: And the remaining activity at 1 µM (SLK)?
Answer: 1.4%

Question: What about the remaining activity at 1 µM (WEE2) of the same compound?
Answer: 97%

Question: And the remaining activity at 1 µM (MLK1)?
Answer: 94%

Question: And the remaining activity at 1 µM (KIT)?
Answer: 0%

Question: And the remaining activity at 1 µM (DRAK2)?
Answer: 100%

Question: And the remaining activity at 1 µM (CAMKK1)?
Answer: 88%

Question: And the remaining activity at 1 µM (SgK110)?
Answer: 98%

Question: And the remaining activity at 1 µM (ABL1-nonphosphorylated)?
Answer: 3.3%

Question: And the remaining activity at 1 µM (HASPIN)?
Answer: 81%

Question: What about the remaining activity at 1 µM (ACVR1) of the same compound?
Answer: 95%

Question: And the remaining activity at 1 µM (PIK3CA (H1047L))?
Answer: 100%

Question: And the remaining activity at 1 µM (TNK1)?
Answer: 52%

Question: What about the remaining activity at 1 µM (CSNK2A1) of the same compound?
Answer: 100%

Question: What about the remaining activity at 1 µM (CSNK1D) of the same compound?
Answer: 77%

Question: What about the remaining activity at 1 µM (PLK3) of the same compound?
Answer: 97%

Question: What about the remaining activity at 1 µM (CSNK1A1L) of the same compound?
Answer: 100%

Question: What about the remaining activity at 1 µM (MERTK) of the same compound?
Answer: 23%

Question: And the remaining activity at 1 µM (GRK7)?
Answer: 100%

Question: What about the remaining activity at 1 µM [2] of the same compound?
Answer: 85%

Question: What about the remaining activity at 1 µM (JNK3) of the same compound?
Answer: 85%

Question: And the remaining activity at 1 µM (EPHA4)?
Answer: 49%

Question: What about the remaining activity at 1 µM (PRKCH) of the same compound?
Answer: 100%

Question: And the remaining activity at 1 µM (EPHA2)?
Answer: 40%

Question: And the remaining activity at 1 µM (SIK2)?
Answer: 100%

Question: And the remaining activity at 1 µM (BMPR2)?
Answer: 82%

Question: And the remaining activity at 1 µM (LRRK2 (G2019S))?
Answer: 38%

Question: And the remaining activity at 1 µM (FLT3 (K663Q))?
Answer: 3.9%

Question: And the remaining activity at 1 µM (EPHA3)?
Answer: 33%

Question: And the remaining activity at 1 µM (TGFBR1)?
Answer: 100%

Question: And the remaining activity at 1 µM (NEK4)?
Answer: 93%

Question: And the remaining activity at 1 µM (ERK2)?
Answer: 97%
